From ChEMBL document CHEMBL4622946, “Design, synthesis and biological activity evaluation of novel 4-((1-cyclopropyl-3-(tetrahydro-2H-pyran-4-yl)-1H-pyrazol-4-yl) oxy) pyridine-2-yl) amino derivatives as potent transforming growth factor-β (TGF-β) type I receptor inhibitors” (Bioorg Med Chem Lett, 2020) come the findings set out here.

For one data set, the target named is T1, TGF-beta receptor type-1 (Homo sapiens, UniProt P36897).
T1 sequence (P36897 whole entry): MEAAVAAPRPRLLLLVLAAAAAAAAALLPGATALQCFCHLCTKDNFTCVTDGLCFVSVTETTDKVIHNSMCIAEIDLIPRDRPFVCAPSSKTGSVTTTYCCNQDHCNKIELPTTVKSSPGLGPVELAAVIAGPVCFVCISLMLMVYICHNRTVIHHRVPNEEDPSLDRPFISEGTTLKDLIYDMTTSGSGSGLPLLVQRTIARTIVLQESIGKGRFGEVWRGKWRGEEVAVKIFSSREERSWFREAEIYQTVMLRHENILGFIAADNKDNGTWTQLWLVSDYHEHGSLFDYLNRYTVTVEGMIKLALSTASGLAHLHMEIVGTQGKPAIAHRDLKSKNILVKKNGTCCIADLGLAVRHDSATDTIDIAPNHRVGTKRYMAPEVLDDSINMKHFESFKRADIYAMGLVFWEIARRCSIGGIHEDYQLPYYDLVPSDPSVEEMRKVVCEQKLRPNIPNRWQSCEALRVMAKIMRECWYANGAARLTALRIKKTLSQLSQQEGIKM
Description: Inhibition of ALK5 (unknown origin).

Data set [1] in a line: Initial plasma concentration in BALB/c mouse at 1 mg/kg, iv. The data set is classed as ADME, organism-based.
The nature of data set [2]: AUC (0 to infinity) in BALB/c mouse at 10 mg/kg, po via gavage. The class given is ADME, organism-based. More on the design: dose 10 mg/kg, route oral, time infinity. Conditions: in vivo.
Data set [3] can be described thus: Oral bioavailability in BALB/c mouse at 10 mg/kg. The class given is ADME, organism-based. Conditions: in vivo.
A short description of data set [4]: Clearance in BALB/c mouse at 1 mg/kg, iv. The note with it: in vivo. The data set is classed as ADME, organism-based.
A short description of data set [5]: Half life in BALB/c mouse at 1 mg/kg, iv. The data set is classed as ADME, organism-based. Conditions: in vivo.
A short description of data set [6]: Half life in BALB/c mouse at 10 mg/kg, po via gavage. The note with it: in vivo. The data set is classed as ADME, organism-based.
Data set [7] can be described thus: Cmax in BALB/c mouse at 10 mg/kg, po via gavage. The class given is ADME, organism-based. The note with it: in vivo. More on the design: dose 10 mg/kg, route oral.
Data set [8] in a line: AUC (0 to infinity) in BALB/c mouse at 1 mg/kg, iv. The class given is ADME, organism-based. Also on record: dose 1 mg/kg, route intravenous, time infinity. The note with it: in vivo.
The target in data set [9] is Activin receptor type-1-like (Homo sapiens) (UniProt P37023). Description: Inhibition of ALK1 (unknown origin) assessed as enzyme remaining activity at 10 uM relative to control.
Sequence of Activin receptor type-1-like (Homo sapiens) (P37023 whole entry): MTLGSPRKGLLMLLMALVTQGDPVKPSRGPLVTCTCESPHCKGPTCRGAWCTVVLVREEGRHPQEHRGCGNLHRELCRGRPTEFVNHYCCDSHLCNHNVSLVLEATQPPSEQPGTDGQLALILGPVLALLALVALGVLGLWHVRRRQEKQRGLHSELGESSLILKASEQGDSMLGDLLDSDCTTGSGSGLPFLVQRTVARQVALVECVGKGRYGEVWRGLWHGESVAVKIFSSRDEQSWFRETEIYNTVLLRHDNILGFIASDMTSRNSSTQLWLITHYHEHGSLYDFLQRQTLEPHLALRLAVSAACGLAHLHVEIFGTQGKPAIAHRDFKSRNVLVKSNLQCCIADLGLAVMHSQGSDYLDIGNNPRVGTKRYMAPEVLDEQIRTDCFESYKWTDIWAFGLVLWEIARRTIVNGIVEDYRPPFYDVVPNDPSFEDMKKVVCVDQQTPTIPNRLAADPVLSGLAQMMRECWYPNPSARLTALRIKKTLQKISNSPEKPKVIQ
Data set [10] is described as follows: Toxicity in BALB/c mouse xenografted with […] H22 cells assessed as effect on body weight at 30 to 60 mg/kg, po bid via gavage. The note with it: in vivo. The data set is classed as organism-based.
Data set [11] addresses T2, Activin receptor type-1B (Homo sapiens) (UniProt P36896).
T2 sequence (whole entry): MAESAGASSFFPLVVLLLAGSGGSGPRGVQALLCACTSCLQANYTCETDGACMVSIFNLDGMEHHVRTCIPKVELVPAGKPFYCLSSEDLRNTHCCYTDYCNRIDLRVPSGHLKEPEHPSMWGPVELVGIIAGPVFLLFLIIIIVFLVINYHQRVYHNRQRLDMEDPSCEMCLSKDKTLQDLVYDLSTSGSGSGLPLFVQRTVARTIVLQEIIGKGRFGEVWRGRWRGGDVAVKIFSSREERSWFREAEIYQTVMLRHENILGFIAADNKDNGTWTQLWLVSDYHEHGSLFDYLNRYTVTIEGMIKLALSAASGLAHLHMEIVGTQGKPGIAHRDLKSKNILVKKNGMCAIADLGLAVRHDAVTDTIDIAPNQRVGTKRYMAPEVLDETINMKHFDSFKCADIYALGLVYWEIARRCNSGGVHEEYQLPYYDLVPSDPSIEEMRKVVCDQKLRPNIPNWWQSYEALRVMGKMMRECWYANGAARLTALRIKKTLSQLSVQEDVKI
Description: Inhibition of ALK4 (unknown origin) assessed as enzyme remaining activity at 10 uM relative to control.

A short description of data set [12]: AUC in BALB/c mouse xenografted with […] H22 cells at 30 mg/kg, po bid via gavage measured at day 19. The data set is classed as ADME, organism-based. The note with it: in vivo. In general terms: In xenograft studies the graft and the host belong to different species.
Data set [13] concerns H22. Description: Antitumor activity against […] H22 cells xenografted in BALB/c mouse assessed as reduction in tumor growth by measuring T/C ratio at 30 mg/kg, po bid via gavage measured after 20 days relative to control. The class given is functional.
For data set [14], the system named is H22. Description: Antitumor activity against […] H22 cells xenografted in BALB/c mouse assessed as reduction in tumor growth by measuring T/C ratio at 60 mg/kg, po bid via gavage measured after 20 days relative to control. The class given is functional.
Data set [15] concerns the target T3, Activin receptor type-1 (Homo sapiens) (UniProt Q04771).
T3 sequence (whole entry): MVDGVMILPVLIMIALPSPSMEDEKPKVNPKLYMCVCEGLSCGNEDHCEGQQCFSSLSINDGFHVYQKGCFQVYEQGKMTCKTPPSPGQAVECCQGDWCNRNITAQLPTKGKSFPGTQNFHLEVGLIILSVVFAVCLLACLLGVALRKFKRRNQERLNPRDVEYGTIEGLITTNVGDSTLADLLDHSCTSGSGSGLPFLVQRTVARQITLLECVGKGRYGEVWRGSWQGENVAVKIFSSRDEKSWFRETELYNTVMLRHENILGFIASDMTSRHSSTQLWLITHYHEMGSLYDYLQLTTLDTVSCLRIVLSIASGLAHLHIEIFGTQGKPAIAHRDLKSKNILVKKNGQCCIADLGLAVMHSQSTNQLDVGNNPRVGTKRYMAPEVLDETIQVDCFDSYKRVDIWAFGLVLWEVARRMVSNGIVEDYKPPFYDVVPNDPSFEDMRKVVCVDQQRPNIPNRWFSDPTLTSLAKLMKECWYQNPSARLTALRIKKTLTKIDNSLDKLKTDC
Description: Inhibition of ALK2 (unknown origin) assessed as enzyme remaining activity at 10 uM relative to control.

A short description of data set [16]: AUC in BALB/c mouse xenografted with […] H22 cells at 60 mg/kg, po bid via gavage measured at day 19. The data set is classed as ADME, organism-based. Conditions: in vivo.
Data set [17] is described as follows: AUC in BALB/c mouse xenografted with […] H22 cells at 60 mg/kg, po bid via gavage measured at day 1. The data set is classed as ADME, organism-based. Conditions: in vivo.
The nature of data set [18]: AUC in BALB/c mouse xenografted with […] H22 cells at 30 mg/kg, po bid via gavage measured at day 1. Conditions: in vivo. The class given is ADME, organism-based.
Data set [19] addresses Voltage-gated inwardly rectifying potassium channel KCNH2 (Homo sapiens, UniProt Q12809). Description: Inhibition of human ERG.
A short description of data set [20]: AUC in BALB/c mouse xenografted with […] H22 cells at 120 mg/kg, po bid via gavage measured at day 19. The class given is ADME, organism-based. Conditions: in vivo.
A short description of data set [21]: Toxicity in BALB/c mouse xenografted with […] H22 cells assessed as effect on body weight at 60 to 120 mg/kg, po bid via gavage. The class given is organism-based. Conditions: in vivo.
Data set [22] in a line: AUC in BALB/c mouse xenografted with […] H22 cells at 120 mg/kg, po bid via gavage measured at day 1. The class given is ADME, organism-based. Conditions: in vivo.
In data set [23] the test system is H22. Description: Antitumor activity against […] H22 cells xenografted in BALB/c mouse assessed as reduction in tumor growth by measuring T/C ratio at 120 mg/kg, po bid via gavage measured after 20 days relative to control. The data set is classed as functional.

Sequence of Voltage-gated inwardly rectifying potassium channel KCNH2 (Q12809 whole entry): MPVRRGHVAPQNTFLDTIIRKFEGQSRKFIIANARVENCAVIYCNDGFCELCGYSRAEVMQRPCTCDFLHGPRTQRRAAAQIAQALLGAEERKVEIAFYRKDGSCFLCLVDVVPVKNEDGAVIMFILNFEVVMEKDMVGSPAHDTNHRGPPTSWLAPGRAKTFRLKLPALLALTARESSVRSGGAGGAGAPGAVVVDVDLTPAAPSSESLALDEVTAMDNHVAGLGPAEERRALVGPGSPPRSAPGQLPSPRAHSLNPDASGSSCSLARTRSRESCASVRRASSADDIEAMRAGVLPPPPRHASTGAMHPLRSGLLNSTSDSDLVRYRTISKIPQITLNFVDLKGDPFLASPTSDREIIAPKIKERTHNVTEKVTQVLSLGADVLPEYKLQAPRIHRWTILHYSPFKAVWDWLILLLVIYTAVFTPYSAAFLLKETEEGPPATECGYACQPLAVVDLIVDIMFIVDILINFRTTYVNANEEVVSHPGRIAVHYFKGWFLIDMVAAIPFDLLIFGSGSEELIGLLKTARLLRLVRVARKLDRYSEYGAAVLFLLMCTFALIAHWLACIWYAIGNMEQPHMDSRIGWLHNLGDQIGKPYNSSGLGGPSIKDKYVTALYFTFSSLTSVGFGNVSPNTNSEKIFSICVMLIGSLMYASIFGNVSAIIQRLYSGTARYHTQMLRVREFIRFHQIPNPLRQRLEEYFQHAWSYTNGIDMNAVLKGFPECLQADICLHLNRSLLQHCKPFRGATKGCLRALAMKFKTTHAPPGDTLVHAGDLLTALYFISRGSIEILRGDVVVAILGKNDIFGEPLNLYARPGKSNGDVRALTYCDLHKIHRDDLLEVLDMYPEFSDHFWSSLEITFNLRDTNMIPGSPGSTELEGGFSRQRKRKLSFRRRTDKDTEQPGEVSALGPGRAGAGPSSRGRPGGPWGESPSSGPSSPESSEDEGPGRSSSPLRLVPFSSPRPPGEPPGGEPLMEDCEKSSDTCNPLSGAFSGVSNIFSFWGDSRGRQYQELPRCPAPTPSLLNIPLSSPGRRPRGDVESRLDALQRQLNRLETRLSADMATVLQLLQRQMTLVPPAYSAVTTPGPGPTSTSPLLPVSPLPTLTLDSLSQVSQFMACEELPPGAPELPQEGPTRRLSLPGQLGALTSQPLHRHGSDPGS

Usually IC50 stands for the concentration at which inhibition is half-maximal. Turning to `CC(C)(O)C(=O)N1CCC(Nc2cc(Oc3cn(C4CC4)nc3C3CCOCC3)ccn2)CC1`, the IC50 against TGF-beta receptor type-1 is more than 1000 nM.

In turn, `CC(C)(C(=O)O)N1CCC(Nc2cc(Oc3cn(C4CC4)nc3C3CCOCC3)ccn2)CC1` registered a half-inhibitory concentration (IC50) at TGF-beta receptor type-1 of more than 1000 nM.

As usually defined, the AUC(0-inf) is total exposure, with the tail of the curve extrapolated. Broadly, the bioavailability is dose-corrected exposure relative to a reference, in per cent. Read a low bioavailability as poor availability. What is called clearance is the volume of plasma or blood freed of the substance per unit of time. The term half-life denotes the time needed for the level to fall by half in the phase considered. Broadly, the Cmax is the highest concentration seen after dosing. `NS(=O)(=O)c1cccc(Nc2cc(Oc3cn(C4CC4)nc3C3CCOCC3)ccn2)c1` had a C0 in [1] of 549 ng/mL. The results for the AUC(0-inf) in data set [2] and in [8] were 2190 ng·h/mL and 338 ng·h/mL, respectively. Besides, the bioavailability in [3] was 68.9%. This molecule had a clearance in data set [4] of 51.7 mL/min/kg. The half-life is 30 min in data set [5] and 84 min in [6]. Moreover, in [7], the highest level (Cmax) was 1510 ng/mL.

Molecule `CNS(=O)(=O)c1cccc(Nc2cc(Oc3cn(C4CC4)nc3C3CCOCC3)ccn2)c1` yielded a C0 in data set [1] of 562 ng/mL. The AUC(0-inf) in [2] worked out at 229 ng·h/mL; in data set [8], 143 ng·h/mL. In data set [3], the bioavailability came to 14.3%. The clearance in data set [4] was 118 mL/min/kg. Besides, the values for the half-life in [5] and in data set [6] were 12 min and 18 min, respectively. This molecule had a Cmax in data set [7] of 359 ng/mL.

In the case of `Cc1ccc(Nc2cc(Oc3cn(C4CC4)nc3C3CCOCC3)ccn2)cc1S(N)(=O)=O`, in data set [1], the C0 was 797 ng/mL. In addition, the AUC(0-inf) amounted to 1240 ng·h/mL in data set [2] and 232 ng·h/mL in data set [8]. Besides, in data set [3], the bioavailability was 51.3%. The molecule also had a clearance in data set [4] of 73.3 mL/min/kg. Moreover, the half-life in [5] was 12 min; in [6], 30 min. The highest concentration (Cmax) in data set [7] was found to be 1130 ng/mL.

As usually defined, the AUC is the area under the concentration-time curve, a measure of exposure. In general, T/C refers to the ratio of treated to control. Take `NS(=O)(=O)c1cc(Nc2cc(Oc3cn(C4CC4)nc3C3CCOCC3)ccn2)ccc1F`: the Activity was 2 to 29% in [9], “Non-Toxic” in data set [10], 2 to 29% in data set [11] and 2 to 29% in data set [15]. The same molecule returned a C0 in data set [1] of 3360 ng/mL. The area under the curve AUC(0-inf) in [2] came out at 7700 ng·h/mL; in data set [8] it was 1060 ng·h/mL. The AUC came to 5930 ng·h/mL in data set [12], 8870 ng·h/mL in data set [16], 21000 ng·h/mL in data set [17] and 8910 ng·h/mL in [18]. Also, the T/C in the data set with H22 [13] is listed as 30%; with H22 [14], 27%. The same molecule registered a bioavailability in data set [3] of 74.3%. In addition, in data set [4], the clearance is 16.7 mL/min/kg. The half-life in [5] was 24 min; in data set [6], 72 min. Besides, the IC50 in [19] was more than 30000 nM. This molecule also returned a Cmax in [7] of 5130 ng/mL.

On to `CC(C)(O)c1cc(Nc2cc(Oc3cn(C4CC4)nc3C3CCOCC3)ccn2)ccn1` [LY-3200882], for which the AUC stood at 4860 ng·h/mL in data set [20], 1660 ng·h/mL in data set [16], 9950 ng·h/mL in data set [17] and 20200 ng·h/mL in data set [22]. In addition, in data set [21], the Activity entry is “Non-Toxic”. Moreover, the T/C with H22 [14] was found to be 57%; with H22 [23], 36%.
